Measurements reported in patent US10934277B2, “Enantiomerically purified GPER agonist for use in treating disease states and conditions” (Linnaeus Therapeutics, Inc., priority 2018, dated 2021).
Converted amounts (≈) assume the structure as drawn. “And” between values parts separate entries of the source, which are not always exact repeats. Equal entries are not always repeated.

Tests used:
[1] = Solubility measurement in pH buffers; assay type: physicochemical
[2] = Kinetic solubility measurement in bio-relevant media; assay type: physicochemical; conditions: FeSSIF
pKa titration test = assay type: physicochemical; conditions: range of 3-11
[3] = LogD7.4 by shake-flask method (pH 7.4 phosphate buffer / n-octanol); assay type: physicochemical; conditions: for Concentration in pH buffer 7.4: aqueous phase
Protocol: Log D7.4 was measured with the solvent systems of pH 7.4 phosphate buffer and n-octanol by shake-flask method.

CYP3A4 = assay: Cytochrome P450 induction in hepatocytes, CYP3A4; assay type: in vitro ADME; conditions: hepatocytes from three different human cell lines; 1 μM, 10 μM and 100 μM
HTR2B = HTR2B (Homo sapiens, UniProt P41595); assay: Off target selectivity assay, HTR2B; assay type: cell-based; conditions: dose response, concentrations up to 10 μM; read-out: IC50 or EC50 on HTR2B
Protocol: (§1) Final assay vehicle concentration was 1%.
(§2) For Gi coupled GPCRs, EC80 forskolin was included.
(§3) DMSO concentration for all readouts is ≤0.2%.
(§4) Probenicid was prepared fresh. Cells were loaded with dye prior to testing.

OPRD1 = OPRD1 (Homo sapiens, UniProt P41143); assay: Off target selectivity assay, OPRD1; assay type: cell-based; conditions: dose response, concentrations up to 10 μM; read-out: IC50 or EC50 on OPRD1
Protocol: as §1, §2, §3, §4

OATP1B3 = target: T1, OATP1B3 (Homo sapiens, UniProt Q9NPD5); assay: Drug transporter fluorometric inhibition, OATP1B3; assay type: in vitro ADME
T1 sequence (Q9NPD5 1-702): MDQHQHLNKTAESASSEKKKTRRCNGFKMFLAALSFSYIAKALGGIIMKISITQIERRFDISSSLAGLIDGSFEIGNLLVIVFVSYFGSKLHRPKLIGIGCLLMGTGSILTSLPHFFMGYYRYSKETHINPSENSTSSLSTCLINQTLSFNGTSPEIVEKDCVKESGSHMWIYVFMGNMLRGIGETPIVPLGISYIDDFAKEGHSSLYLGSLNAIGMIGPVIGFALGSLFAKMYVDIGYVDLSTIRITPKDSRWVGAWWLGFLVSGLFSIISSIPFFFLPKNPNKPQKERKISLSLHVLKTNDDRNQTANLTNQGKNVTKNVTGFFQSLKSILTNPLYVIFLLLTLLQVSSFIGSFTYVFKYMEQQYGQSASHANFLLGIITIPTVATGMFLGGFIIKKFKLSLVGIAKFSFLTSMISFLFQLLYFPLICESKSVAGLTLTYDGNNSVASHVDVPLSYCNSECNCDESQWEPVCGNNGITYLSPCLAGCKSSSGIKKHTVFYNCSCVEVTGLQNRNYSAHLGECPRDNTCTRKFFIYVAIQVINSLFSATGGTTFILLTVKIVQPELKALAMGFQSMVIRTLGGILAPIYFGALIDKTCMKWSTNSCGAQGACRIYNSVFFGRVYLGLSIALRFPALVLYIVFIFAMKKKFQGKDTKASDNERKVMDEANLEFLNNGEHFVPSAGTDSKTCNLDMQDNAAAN
Protocol: Drug transporter (fluorometric inhibition)
The percent of control was calculated using the following equation. The percent of inhibition was calculated by subtracting the percent of control from 100. The IC50 value (concentration causing a half-maximal inhibition of the control value) was determined by non-linear regression analysis of the concentration-response curve using the Hill equation.
Compound is the individual reading in the presence of the test compound. T1 is the mean reading in the absence of the test compound. Background (for P-gp and BCRP) is the mean reading in the presence of the highest effective concentration of the reference inhibitor. Background (for OATP1B1, OATP1B3, OAT1, OAT3, and OCT2) is the mean reading in the absence of both the test compound and the substrate.

[4] = shake-flask, single samples #1-3

OPRD1, sequence (P41143 whole entry): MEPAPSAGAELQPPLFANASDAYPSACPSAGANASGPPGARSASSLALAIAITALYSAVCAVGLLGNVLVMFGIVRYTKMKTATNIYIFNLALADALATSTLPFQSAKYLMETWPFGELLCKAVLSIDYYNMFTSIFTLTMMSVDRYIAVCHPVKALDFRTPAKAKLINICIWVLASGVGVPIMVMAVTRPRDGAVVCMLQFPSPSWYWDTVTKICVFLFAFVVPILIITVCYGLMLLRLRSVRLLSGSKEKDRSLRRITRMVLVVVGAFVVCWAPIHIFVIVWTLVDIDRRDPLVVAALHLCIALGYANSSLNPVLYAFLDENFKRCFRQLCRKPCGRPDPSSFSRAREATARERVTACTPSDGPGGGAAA
HTR2B, sequence (P41595 whole entry): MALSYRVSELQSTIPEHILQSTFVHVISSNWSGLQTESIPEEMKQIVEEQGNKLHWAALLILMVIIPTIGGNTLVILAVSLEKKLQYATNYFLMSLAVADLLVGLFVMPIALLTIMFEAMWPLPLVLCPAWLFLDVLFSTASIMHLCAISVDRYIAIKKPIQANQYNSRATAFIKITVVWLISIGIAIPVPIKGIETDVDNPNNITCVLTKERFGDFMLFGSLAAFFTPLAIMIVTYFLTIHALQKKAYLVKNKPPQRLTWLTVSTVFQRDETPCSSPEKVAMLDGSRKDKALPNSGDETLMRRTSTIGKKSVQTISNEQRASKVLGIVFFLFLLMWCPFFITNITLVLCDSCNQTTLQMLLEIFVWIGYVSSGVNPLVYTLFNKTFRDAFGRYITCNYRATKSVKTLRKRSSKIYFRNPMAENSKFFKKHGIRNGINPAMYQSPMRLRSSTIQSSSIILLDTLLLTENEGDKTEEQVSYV

| Structure (SMILES) | solubility at 24 h ([1]; pH 2, aqueous buffer, thermodynamic from solid, all pH buffers 2.0 to 8.0, 37° C., 24 hrs, read-out: solubility at pH 2.0-8.0) [µg/mL] | form change in all the pH buffers ([1]; pH 2.0 to 8.0, after 24 hrs) | form change in the three bio-relevant media ([2]; SGF, FaSSIF, after 1, 2, 4 and 24 hrs) | solubility ([2]; pH 5, thermodynamic from solid, 37° C., read-out: highest solubility, observed in FeSSIF) [µg/mL] | pKa by titration (pKa titration test) | LogP* ([3]; LogP = LogD(pH) + Log [1 + 10^(pKa −pH)]) | logP ([3]; n-octanol / pH 7.4 phosphate buffer, pH 7.4, LogP = LogD(pH) + Log [1 + 10^(pKa −pH)]) | logD ([3]; n-octanol / pH 7.4 phosphate buffer, shake-flask, pH 7.4 phosphate buffer and n-octanol) | Concentration in pH buffer 7.4 [3, 4] [μg/mL] | Concentration in pH buffer 7.4 ([3]; shake-flask, single samples #1-3, listed as SRR G-1 freebase) [μg/mL] | Average of LogD7.4 ([3]; shake-flask, pH 7.4 phosphate buffer and n-octanol) | Concentration in n-octanol [3, 4] | LogD7.4 [3, 4] | CYP3A4 induction (CYP3A4) | IC50 (HTR2B) [µM] | IC50 (OPRD1) [µM] | inhibition at 10 µM (OATP1B3) [%] |
| --- | --- | --- | --- | --- | --- | --- | --- | --- | --- | --- | --- | --- | --- | --- | --- | --- | --- |
| CC(=O)c1ccc2c(c1)[C@@H]1C=CC[C@@H]1[C@H](c1cc3c(cc1Br)OCO3)N2 (single isomer, unassigned) [SRR G-1] | < 0.72 | No form change was observed | No form change was observed | ~37 (≈ 89.7 µM) | no pKa value was observed | >3.22 | > 3.22 | > 3.22 | <0.82 | < 0.82 | > 3.22 | 1370 µg/mL and 1340 µg/mL | >3.22 and >3.21 | induced at only 10 μM in 2 of the 3 cell lines | 8.2 | 0.87 | – |
| CC(=O)c1ccc2c(c1)[C@H]1C=CC[C@H]1[C@@H](c1cc3c(cc1Br)OCO3)N2 [RSS G-1, 1-((3aR,4S,9bS)-4-(6-bromobenzo[d][1,3]dioxol-5-yl)-3a,4,5,9b-tetrahydro-3H-cyclopenta[c]quinolin-8-yl)ethan-1-one] | – | – | – | – | – | – | – | – | – | – | – | – | – | – | – | – | 74.3 |
